Results: patent EP0922101B1, “EGF-LIKE FACTOR FROM CHROMAFFIN GRANULES AND GLIA CELL-DERIVED NEUROTROPHIC FACTOR WITH SURVIVAL-PROMOTING ACTIVITY ON DAERGIC NEURONS” (BIOPHARM Gesellschaft zur biotechnologischen Entwicklung …, priority 1996, dated 1998)
“Also recorded” adds a separate entry of the source.

Experiments:
[1] = test system: mesencephalic DAergic neurons; assay: Survival of TH-positive DAergic neurons in dissociated E14 ventral mesencephalic cell cultures (TH immunocytochemistry, cell counts); type: cell-based, rat; details: for survival promoting activity: concentrations up to 100 ng/ml, treated for 7 days; for effect on survival promoting effect of chromaffin granule protein: 30 µM in combination with chromaffin granule protein 1:50, DIV1-DIV8; for basal survival of TH-immunoreactive neurons: 30 µM, control cultures, DIV8
Method: (§1) Tissue culture. Mesencephalic cell cultures were essentially established as described by Krieglstein and Unsicker (1994). In brief, the ventral midbrain floor was dissected from embryonic day (E) 14 Wistar rat fetuses of two litters (20-25 embryos) and collected in CMF. Tissue pieces were enzymatically dissociated using 0.25% trypsin (BioWhittaker) in CMF for 15 min at 37°C. After addition of an equal volume of ice-cold horse serum and 1mg DNAse, Cells were triturated with fire-polished and siliconized pasteur pipettes and subsequently washed with DMEM/F12. The single cell suspension (100µl) was seeded on polyornithine (0.1 mg/ml in 15mM borate buffer, pH 8.4, Sigma)-laminin (5µg/ml; Sigma) coated glass cover slips at a density of 200.000 cells/cm^2. Coverslips were incubated in a humified 5% CO2/95% air atmosphere to allow cells to attach. After two hours coverslips were transferred to 24-well plates (Falcon) containing 750 µl medium. On the following day, and subsequently every three days, 500 µl of the medium was replaced and neurotrophic factors were added at the same time at the given concentrations.
Immunocytochemistry. To identify DAergic or serotinergic neurons cells were visualized using antibodies aginst tyrosine hydroxylase (TH), or serotonin, respectively. Cells were fixed with 4% paraformaldehyde buffered in phosphate buffered saline (PBS) for 10 min at room temperature, permeabilized with acetone at -20°C for 10 min and washed with (PBS). After blocking with 1% H2O2 in PBS, followed by 1 % horse serum, coverslips were stained with a monoclonal antibody to rat TH (1:200; Boehringer Mannheim; diluted in 1 % horse serum) or with an antibody against serotonin (1:50; DAKO) for 1 h at 37°C. Specific staining was vizualized using the anti-mouse Vectastain ABC kit in combination with DAB (Camon, Germany). For glial fibrillary acidic protein (GFAP) immunocytochemistry, cells were fixed and permeabilized using aceton at -20°C for 20 min, then washed with PBS and incubated with a monoclonal antibody against GFAP (1:100; Sigma) for 1 h at 37°C. As a secondary antibody TRITC anti-mouse-IgG was used. To monitor cell proliferation bromodesoxyuridine (BrdU) was added to the culture, 24 hours prior fixation, at a final concentration of 10 µM. Cells were washed twice with PBS and fixed with 70% ethanol buffered with 50 mM glycine, pH 2.0, for 20 min at -20°C. Incorporated BrdU was identified using anti-BrdU detection Kit I (Boehringer, Mannheim). BrdU/TH double detection was achieved by first applying the protocol for BrdU followed after another five washes with PBS and by the procedure for TH staining using TRITC anti-mouse-IgG as a secondary antibody. Nuclei were stained with propidium iodide (20 s, 0.1µg/ml). Coverslips were mounted using Aquatex (Merck, Darmstadt).
(§2) Evaluation of cell numbers. Survival of DAergic neurons was evaluated by counting all TH-positive neurons in one diagonal strips of the coverslip using 100-fold magnification. This area corresponded to 12% of the total area. Quantification was done in triplicate and in at least two independent experiments. The number of GFAP-positive cells were assessed likewise.

[2] = test system: GFAP-positive astroglial cells; assay: Induction of GFAP-positive astroglial cells in E14 mesencephalic cell cultures (GFAP immunocytochemistry); type: cell-based, rat
Method: as §1
Immunocytochemistry. To identify DAergic or serotinergic neurons cells were visualized using antibodies aginst tyrosine hydroxylase (TH), or serotonin, respectively. Cells were fixed with 4% paraformaldehyde buffered in phosphate buffered saline (PBS) for 10 min at room temperature, permeabilized with acetone at -20°C for 10 min and washed with (PBS). After blocking with 1% H2O2 in PBS, followed by 1 % horse serum, coverslips were stained with a monoclonal antibody to rat TH (1:200; Boehringer Mannheim; diluted in 1 % horse serum) or with an antibody against serotonin (1:50; DAKO) for 1 h at 37°C. Specific staining was vizualized using the anti-mouse Vectastain ABC kit in combination with DAB (Camon, Germany). For glial fibrillary acidic protein (GFAP) immunocytochemistry, cells were fixed and permeabilized using aceton at -20°C for 20 min, then washed with PBS and incubated with a monoclonal antibody against GFAP (1:100; Sigma) for 1 h at 37°C. As a secondary antibody TRITC anti-mouse-IgG was used. […]
as §2, with “This area corresponded to 12% of the total area.” left out
In an initial series of experiments the chromaffin granule-derived activity is analyzed by specifically blocking its putative receptor pathway. […] When cultures were treated with TGF-α, a physiological EGFR ligand in the CNS, or EGF (10 ng/ml), only few GFAP-positive astroglial cells could be detected (Fig. 12). […]

p185^c-erbB2 = p185^c-erbB2 (Homo sapiens, UniProt P04626); details: cited from earlier work
EGFR kinase = EGFR kinase (Homo sapiens, UniProt P00533); details: EGFR kinase autophosphorylation; cited from earlier work
HER1-2-kinase = HER1-2-kinase autophosphorylation; cited from earlier work
[3] = 10µM with chromaffin granule protein 1:50, six days

Sequence of p185^c-erbB2 (P04626 23-1255): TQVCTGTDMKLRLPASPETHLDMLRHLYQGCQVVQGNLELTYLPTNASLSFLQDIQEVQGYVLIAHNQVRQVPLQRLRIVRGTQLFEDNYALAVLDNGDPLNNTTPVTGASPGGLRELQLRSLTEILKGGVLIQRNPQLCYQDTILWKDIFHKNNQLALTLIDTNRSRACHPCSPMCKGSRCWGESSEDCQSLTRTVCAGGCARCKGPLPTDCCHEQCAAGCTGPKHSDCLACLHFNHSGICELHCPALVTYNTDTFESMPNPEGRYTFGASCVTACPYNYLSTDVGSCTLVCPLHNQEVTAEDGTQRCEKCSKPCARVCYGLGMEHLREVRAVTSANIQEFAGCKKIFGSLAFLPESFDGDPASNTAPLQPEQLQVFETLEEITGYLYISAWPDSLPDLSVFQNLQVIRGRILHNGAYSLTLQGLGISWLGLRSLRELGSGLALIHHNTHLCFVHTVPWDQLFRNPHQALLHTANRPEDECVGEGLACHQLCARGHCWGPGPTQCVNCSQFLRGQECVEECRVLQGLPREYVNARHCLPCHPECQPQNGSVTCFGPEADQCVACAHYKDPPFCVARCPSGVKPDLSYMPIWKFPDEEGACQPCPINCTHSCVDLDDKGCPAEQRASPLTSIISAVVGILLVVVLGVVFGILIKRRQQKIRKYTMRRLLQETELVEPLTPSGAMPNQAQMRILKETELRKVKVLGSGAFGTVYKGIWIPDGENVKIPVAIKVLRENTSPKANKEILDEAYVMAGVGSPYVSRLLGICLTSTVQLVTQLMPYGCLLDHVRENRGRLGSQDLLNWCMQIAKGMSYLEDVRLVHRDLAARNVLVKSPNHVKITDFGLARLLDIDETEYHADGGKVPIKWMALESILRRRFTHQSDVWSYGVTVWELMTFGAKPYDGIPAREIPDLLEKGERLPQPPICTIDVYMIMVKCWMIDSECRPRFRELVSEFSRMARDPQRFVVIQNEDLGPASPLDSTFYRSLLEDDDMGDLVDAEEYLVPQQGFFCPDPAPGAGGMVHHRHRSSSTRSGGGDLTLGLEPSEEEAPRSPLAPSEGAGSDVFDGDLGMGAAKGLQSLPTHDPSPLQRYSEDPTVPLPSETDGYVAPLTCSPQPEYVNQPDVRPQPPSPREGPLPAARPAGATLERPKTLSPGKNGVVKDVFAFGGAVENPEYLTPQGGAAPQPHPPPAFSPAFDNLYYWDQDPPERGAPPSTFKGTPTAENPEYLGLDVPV
Sequence of EGFR kinase (P00533 25-1210): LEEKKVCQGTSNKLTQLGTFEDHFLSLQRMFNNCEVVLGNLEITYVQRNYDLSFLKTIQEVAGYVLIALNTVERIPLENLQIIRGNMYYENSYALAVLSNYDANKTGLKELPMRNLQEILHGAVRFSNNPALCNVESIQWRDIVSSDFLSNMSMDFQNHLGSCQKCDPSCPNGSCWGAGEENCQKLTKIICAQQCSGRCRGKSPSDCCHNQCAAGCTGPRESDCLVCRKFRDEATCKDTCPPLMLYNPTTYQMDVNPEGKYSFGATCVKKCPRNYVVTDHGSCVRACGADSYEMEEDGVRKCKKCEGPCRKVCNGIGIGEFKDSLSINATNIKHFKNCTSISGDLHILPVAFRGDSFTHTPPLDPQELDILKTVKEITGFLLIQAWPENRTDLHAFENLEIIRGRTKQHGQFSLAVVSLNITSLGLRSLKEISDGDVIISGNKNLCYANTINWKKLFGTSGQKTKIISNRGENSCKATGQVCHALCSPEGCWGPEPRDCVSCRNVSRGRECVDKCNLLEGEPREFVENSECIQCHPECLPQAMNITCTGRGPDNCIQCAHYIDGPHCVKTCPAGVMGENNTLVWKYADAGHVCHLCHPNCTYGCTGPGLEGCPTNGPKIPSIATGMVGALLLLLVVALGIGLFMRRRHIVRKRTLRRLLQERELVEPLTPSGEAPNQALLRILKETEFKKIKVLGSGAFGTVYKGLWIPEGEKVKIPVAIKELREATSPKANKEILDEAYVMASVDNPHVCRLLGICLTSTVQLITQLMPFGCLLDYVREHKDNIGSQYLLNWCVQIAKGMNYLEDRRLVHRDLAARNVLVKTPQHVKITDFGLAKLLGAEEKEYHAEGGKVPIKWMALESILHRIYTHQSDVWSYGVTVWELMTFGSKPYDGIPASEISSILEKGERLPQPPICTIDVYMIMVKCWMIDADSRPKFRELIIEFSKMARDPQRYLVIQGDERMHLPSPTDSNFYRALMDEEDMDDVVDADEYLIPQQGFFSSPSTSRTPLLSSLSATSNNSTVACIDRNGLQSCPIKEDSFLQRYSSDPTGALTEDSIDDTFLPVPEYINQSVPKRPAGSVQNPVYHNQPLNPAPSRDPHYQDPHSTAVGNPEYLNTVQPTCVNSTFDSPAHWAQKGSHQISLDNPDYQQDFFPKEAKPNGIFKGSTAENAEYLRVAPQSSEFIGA

## Met-enkephalin
[1]
  survival promoting activity: none of these neuropeptides had any survival promoting activity

## O=c1[nH]c(=O)n([C@H]2C[C@H](O)[C@@H](CO)O2)cc1F [FDUR, 5-fluorodeoxyuridine]
[1]
  effect on survival promoting effect of chromaffin granule protein: abolished the survival promoting affect of chromaffin granule protein
  basal survival of TH-immunoreactive neurons: without affecting basal survival

## O=C1NC(=O)c2cc(Nc3ccccc3)c(Nc3ccccc3)cc21 [DAPH, 4,5-Dianilinophthalimide]
[1]; [3]
  effect on survival of DAergic neurons induced by chromaffin granule activity: inhibited
[2]; 10 µM with FGF-2 at 10 ng/ml, DIV 6
  effect on FGF-2-mediated induction of astroglial cells: could not be affected by this inhibitor
[2]; [3]
  effect on appearence of astroglial cell induced by the chromaffin granule activity: inhibited
[2]; 10 µM, DIV 6
  effect on appearance of GFAP-positive astroglial cells in TGF-α or EGF treated cultures: effectively blocked
p185^c-erbB2
  p185^c-erbB2 autophosphorylation: inhibits

## C[N+](C)(C)CCOC(N)=O [carbachol]
[1]; culture medium containing carbachol (10^-5 M), DIV 8
  survival of TH-positive neurons: uneffective

## neuropeptide Y
[1]
  survival promoting activity: none of these neuropeptides had any survival promoting activity

## NC(CCCC(=O)O)C(=O)O (stereo not drawn) [AA, α-aminoadipic acid]
[1]
  effect on survival promoting effect of chromaffin granule protein: abolished the survival promoting affect of chromaffin granule protein
  basal survival of TH-immunoreactive neurons: without affecting basal survival

## Leu-enkephalin
[1]
  survival promoting activity: none of these neuropeptides had any survival promoting activity

## N#C/C(=C\c1ccc(O)c(O)c1)C(=O)NCCCCc1ccccc1 [Tyrphostin B56]
[2]; 10µM Tyrphostin B56 with chromaffin granule protein 1:50
  effect on chromaffin granule protein-induced appearence of astroglial cells: successfully inhibited; also recorded: fully blocked the effect of granule protein on mesencephalic glia
EGFR kinase
  IC50: 5 µM
HER1-2-kinase
  IC50: > 500 µM
